Measurements reported in patent US20240299400A1, “Transcription Factor GLI1 Inhibitors and Uses Thereof” (University of Connecticut, priority 2023, published 2024).

Columns and labels:
GLI1 mRNA expression [1] = experiment: RT-qPCR GLI1 mRNA expression in OHCs-stimulated C3H10T1/2 MEFs; format: cell-based, mouse; conditions: Table 4, racemates and enantiomers, mean ± SEM; read-out: RT-qPCR, IC50 C3H10T1/2
Method: (§1) ASZ001 and Sufu-KO cells were seeded in 96-well plates (10,000/well, 100 μL) and incubated overnight under growth conditions. On the second day, ‘growth’ media was removed and replaced by ‘assay’ media (100 μL). On the third day, cells were treated with a serial dilution of drugs or DMSO for 48 h. mRNA expression was determined through Taqman Fast Cells-to-CT Kit (#4399003) per the manufacturer's instructions. In brief, cells were washed with chilled PBS, then mixed with lysis solution containing DNase I and incubated at RT for 5 min. Stop solution was then added to quench the lysis reagents. cDNA was then synthesized through a BioRad MyCycler following addition of reverse transcriptase. Finally, the cDNA was amplified through an ABI 7500 system following addition of Taqman Fast Universal PCR Master Mix and Taqman Gene Expression Primer. Relative gene expression levels were computed by the ΔΔCt method. Values represent mRNA expression relative to DMSO control (set at 1.0). Data were analyzed using GraphPad Prism, and IC50 values are the mean±SEM for at least two separate experiments performed in triplicate. Primers used are as follows: mouse ActB (Mm00607939_s1); mouse GLI1 (Mm00494645_ml); mouse Gli2 (Mm01293117_ml); mouse Ptch1 (Mm00436026_ml); mouse Hhip (Mm00469580_ml).
C3H10T1/2 MEFs were seeded in 24-well plates (50,000/well, 500 μL). Following 24 h incubation, the ‘growth’ media was removed and replaced with ‘assay’ media (500 μL). On the third day, cells were treated with either DMSO, OHCs, or OHCs+drugs. Following a 24 h incubation, gene expression analysis was carried out following identical protocols as described above.

GLI1 mRNA expression [2] = experiment: RT-qPCR GLI1 mRNA expression in Sufu-KO MEFs; format: cell-based, mouse; conditions: read-out: RT-qPCR, IC50 Sufu-KO
Method: as §1

GLI1 mRNA expression [3] = experiment: RT-qPCR GLI1 mRNA expression in ASZ001 BCC cells; format: cell-based, mouse; conditions: read-out: RT-qPCR, IC50 ASZ001
Method: as §1

GLI1-ZFD [4] = biological target: T1, GLI1-ZFD (Homo sapiens, UniProt P08151); experiment: Microscale thermophoresis (MST) binding to GLI1-ZFD
T1 construct: GLI1-ZFD Expression and Purification; made in house
T1 sequence (P08151 234-388 limits assumed): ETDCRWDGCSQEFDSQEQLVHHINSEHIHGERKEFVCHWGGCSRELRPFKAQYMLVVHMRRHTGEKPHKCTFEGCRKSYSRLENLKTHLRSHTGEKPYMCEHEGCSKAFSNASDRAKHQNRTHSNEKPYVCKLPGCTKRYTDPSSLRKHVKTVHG
Method: The protein expression and purification experiments followed the previous reported procedures [C. A. Maschinot, et al., Synthesis and evaluation of third generation vitamin D3 analogues as inhibitors of hedgehog signaling. Euro. J. Med. Chem. 162 (2019) 495-506].
GLI1 protein labeling was performed through the Monolith Protein Labeling Kit RED-NHS 2nd Generation (Nanotemper #MO-LO11) per the manufacturer's instructions. Briefly, GLI1 (100 μg, 1 mg/mL) underwent buffer exchange to remove incompatible ingredients like Tris or DTT. Proteins in the Labeling Buffer were incubated with freshly prepared dye (˜3-fold excess of dye) for 30 min at RT in the dark. Unreacted ‘free’ dye was removed by a gel-filtration column. Protein concentration and degree-of-labeling were calculated by measuring absorption at 280 nm and 650 nm. For each assay, 200 nM GLI1 in MST Buffer was mixed with compound dilution in DMSO (DMSO<5%, v/v). The mixture was then loaded to a capillary and the thermophoresis was subsequently determined through Monolith NT.115 station. Results were analyzed by MO.Affinity Analysis software and visualized by Graphpad Prism. MST Buffer: 50 mM HEPES, pH 8.3, 100 mM NaCl.

GLI1-ZFD [5] = biological target: T1, GLI1-ZFD; experiment: Surface plasmon resonance (SPR) binding to GLI1-ZFD; conditions: analyte 100 to 3.125 μM, 1:1 binding fit
Method: SPR studies were performed on a Biacore T200 as a contract service by Creative Biolabs (Shirley, NY, USA), utilizing the same procedure described previously [G. Yernale, A comprehensive review on the biological interest of quinoline and its derivatives. Bioorg. Med. Chem. 32 (2021) 115973]. Briefly, GLI1 protein was immobilized on a Series S CM5 sensor chip (GE Healthcare), and various concentrations of compound 1a/b were injected (flow rate, 30 μL/min) with a contact time of 180 s and dissociation time of 600 s. Kinetic parameters were determined by the Biacore T200 evaluation software.

ASZ001 cells = experiment: MTS anti-proliferative assay in ASZ001 cells; format: cell-based, murine; conditions: Mus musculus, ASZ001, Ave ± SEM
Method: (§2) Cell viability was assessed by MTS proliferation assay kit (Promega) per manufacturer's protocol. Briefly, 2×10^4 cells were plated in a 96-well plate in 100 μL growth medium to make the cell population at ˜80% confluence. After 24 h, 1 μL drug solution was added to each well. DMSO was used as vehicle compound. After 48 h incubation (37° C., 5% CO2), 20 μL of freshly prepared 3-(4,5-dimethylthiazol-2-yl)-5-(3-carboxymethoxyphenyl)-2-(4-sulfophenyl)-2H-tetrazolium (MTS)/phenazine methosulfate (PMS) solution was added to each well, and the plate was returned to the incubator for 1 h. Absorbance at 490 nm was recorded, and the result was analyzed by GraphPad Prism 5. GI50 values represent mean±SEM for at least two separate experiments performed in triplicate.

DAOY (MB) = experiment: MTS anti-proliferative assay in DAOY cells; format: cell-based; conditions: Homo sapiens, Daoy; Table 8, 48 h, mean ± SEM
Method: as §2

PANC-1 (pancreatic) = experiment: MTS anti-proliferative assay in PANC-1 cells; format: cell-based; conditions: Homo sapiens, PANC-1; Table 8, 48 h, mean ± SEM
Method: as §2

[6] = Table 4, racemates and enantiomers, mean ± SEM
[7] = Mus musculus, Table 7, GLI1 mRNA, Ave ± SEM
[8] = Mus musculus, ASZ001, Table 7, GLI1 mRNA, Ave ± SEM

| GI50 (PANC-1 (pancreatic)) | IC50 (GLI1 mRNA expression [2]; [7]) | IC50 (GLI1 mRNA expression [3]; [8]) | SMILES | GI50 (DAOY (MB)) | GI50 (ASZ001 cells; Table 7, 48 h) | other results |
| --- | --- | --- | --- | --- | --- | --- |
| – | – | – | CCN(CC)c1ccc(C(Nc2ccccn2)c2ccc3ccc(C)nc3c2O)cc1 (single isomer, unassigned) [Compound 1a] | – | – | IC50 (GLI1 mRNA expression [1]): 0.71 ± 0.26 µM; IC50 (GLI1 mRNA expression [2]; [6]): 1.7 ± 0.6 µM; IC50 (GLI1 mRNA expression [3]; Mus musculus, ASZ001, Table 4, racemates and enantiomers, mean ± SEM): 1.8 ± 0.7 µM; Kd (GLI1-ZFD [4]; Table 4, mean ± SEM): 12.9 ± 1.6 µM; Ka (GLI1-ZFD [5]; listed as 1a (R)): 171 M⁻¹ s⁻¹; Kd (GLI1-ZFD [5]; listed as 1a (R)): 0.00165 s⁻¹; Rmax (GLI1-ZFD [5]; listed as 1a (R)): 62.84; Kd (GLI1-ZFD [5]; read-out: KD): 9.66 µM |
| – | – | – | CCN(CC)c1ccc(C(Nc2ccccn2)c2ccc3ccc(C)nc3c2O)cc1 (single isomer, unassigned) [Compound 1b] | – | – | IC50 (GLI1 mRNA expression [1]): 0.12 ± 0.08 µM; IC50 (GLI1 mRNA expression [2]; [6]): 0.75 ± 0.38 µM; IC50 (GLI1 mRNA expression [3]; [6]): 1.9 ± 0.6 µM; Kd (GLI1-ZFD [4]; Table 4, mean ± SEM): 22.1 ± 4.3 µM; Ka (GLI1-ZFD [5]; listed as 1b (S)): 70.3 M⁻¹ s⁻¹; Kd (GLI1-ZFD [5]; listed as 1b (S)): 0.00131 s⁻¹; Rmax (GLI1-ZFD [5]; listed as 1b (S)): 78.64; Kd (GLI1-ZFD [5]; read-out: KD): 18.7 µM |
| 61.9 ± 9.3 µM | – | – | CCN(CC)c1ccc(CNc2ccccn2)cc1 [Compound 14, N-(4-Diethylaminobenzyl)pyridin-2-amine] | 45.2 ± 7.7 µM | – | IC50 (GLI1 mRNA expression [2]; Mus musculus, Table 5, GLI1 mRNA, Ave ± SEM): > 25 µM; IC50 (GLI1 mRNA expression [3]; Mus musculus, ASZ001, Table 5, GLI1 mRNA, Ave ± SEM): 10 ± 3.2 µM; Kd (GLI1-ZFD [4]; Table 5, Ave ± SEM): > 125 µM; GI50 (ASZ001 cells; Table 5, 48 h): 34.9 ± 6.1 µM |
| 94.3 ± 19.5 µM | 7.2 ± 2 µM | 21.3 ± 5.2 µM | Cc1ccc2ccc(C(Nc3ccccn3)c3ccccc3)c(O)c2n1 (stereo not shown) [Compound 34, 7-(Phenyl(pyridin-2-ylamino)methyl)-2-methylquinolin-8-ol] | > 100 µM | > 100 µM | binding to GLI1 (in words) (GLI1-ZFD [4]; MST binding assay): do not bind GLI1; Kd (GLI1-ZFD [4]; Table 7, Ave ± SEM): > 125 µM |
| 45.4 ± 10.3 µM | 1.2 ± 0.3 µM | 1.5 ± 0.6 µM | Cc1ccc2ccc(C(Nc3ccccn3)c3ccc(N(C)C)cc3)c(O)c2n1 (stereo not shown) [Compound 42, 7-((4-Dimethylaminophenyl)(pyridin-2-ylamino)methyl)-2-methylquinolin-8-ol] | 18.3 ± 3.6 µM | 10.1 ± 1.8 µM | – |
| 29.6 ± 5.2 µM | 1.2 ± 0.6 µM | 1.3 ± 0.3 µM | Cc1ccc2ccc(C(Nc3ccccn3)c3ccc(N4CCCC4)cc3)c(O)c2n1 (stereo not shown) [Compound 43, 7-((4-(Pyrrolidin-1-yl)phenyl)(pyridin-2-ylamino)methyl)-2-methylquinolin-8-ol] | 12.8 ± 1.9 µM | 8.8 ± 2.4 µM | – |
| 52.7 ± 5.3 µM | 4.5 ± 1 µM | 4 ± 0.8 µM | Cc1ccc2ccc(C(Nc3ccccn3)c3ccc(N4CCCCC4)cc3)c(O)c2n1 (stereo not shown) [Compound 44, 7-((4-(Piperidin-1-yl)phenyl)(pyridin-2-ylamino)methyl)-2-methylquinolin-8-ol] | 22.6 ± 4 µM | 27.7 ± 5.3 µM | – |
| 61.1 ± 11.5 µM | 1.4 ± 0.4 µM | 2.2 ± 0.8 µM | Cc1ccc2ccc(C(Nc3ccccn3)c3ccc(N4CCOCC4)cc3)c(O)c2n1 (stereo not shown) [Compound 45, 7-((4-Morpholinophenyl)(pyridin-2-ylamino)methyl)-2-methylquinolin-8-ol] | 24.2 ± 5.8 µM | 18.3 ± 1.5 µM | – |
